Experimental data as given in ChEMBL document CHEMBL1201862, “PubChem BioAssay data set” (2004).
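1) Cells in 96-well plates. 2) Compound, 48 h, 5 concentrations. 3) Linear interpolation between surrounding doses. 4) Unreached endpoint = highest concentration. GI50 = concentration required for 50% inhibition of growth.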 Activity calls are given as the source filed them. Cut-off read from the data, not from the text of the source: active = GI50 up to about 1.1 µM and inactive = higher.

Key:
Assay in all cases: NCI-60 cell line screen, 48 h
[1] = system: RXF 393
[2] = system: UACC-62
[3] = system: DLD-1
[4] = system: DMS-273
[5] = system: M19-MEL
[6] = system: SW-620
[7] = system: OVCAR-4
[8] = system: SF-268
[9] = system: HL-60
[10] = system: SNB-19
[11] = system: HT-29
[12] = system: RXF 631
[13] = system: KM12
[14] = system: SN12C
[15] = system: SF-295
[16] = system: RPMI-8226
[17] = system: MOLT-4
[18] = system: SF-539
[19] = system: A549
[20] = system: K562
[21] = system: NCI-H522
[22] = system: XF498
[23] = system: UO-31
[24] = system: A498
[25] = system: SK-OV-3
[26] = system: SK-MEL-28
[27] = system: OVCAR-5
[28] = system: HOP-92
[29] = system: COLO 205
[30] = system: HOP-18
[31] = system: NCI-H226
[32] = system: OVCAR-3
[33] = system: U-251
[34] = system: SK-MEL-5
[35] = system: NCI-H23
[36] = system: SNB-75
[37] = system: IGROV-1
[38] = system: UACC-257
[39] = system: OVCAR-8
[40] = system: LXFL 529
[41] = system: ACHN
[42] = system: M14
[43] = system: CCRF-CEM
[44] = system: NCI-H460
[45] = system: SK-MEL-2
[46] = system: TK-10
[47] = system: Malme-3M
[48] = system: EKVX
[49] = system: KM-20L2
[50] = system: HCT-15
[51] = system: LOX IMVI
[52] = system: 786-0
[53] = system: CAKI-1

O=C(O)CN(c1ccccc1)S(=O)(=O)c1ccccc1[N+](=O)[O-]
GI50 [1]: > 100 µM (inactive)
GI50 [2]: > 100 µM (inactive)
GI50 [3]: > 100 µM (inactive)
GI50 [4]: > 100 µM (inactive)
GI50 [5]: > 100 µM (inactive)
GI50 [6]: > 100 µM (inactive)
GI50 [7]: > 100 µM (inactive)
GI50 [8]: > 100 µM (inactive)
GI50 [9]: > 100 µM (inactive)
GI50 [10]: > 100 µM (inactive)
GI50 [11]: > 100 µM (inactive)
GI50 [12]: > 100 µM (inactive)
GI50 [13]: > 100 µM (inactive)
GI50 [14]: > 100 µM (inactive)
GI50 [15]: > 100 µM (inactive)
GI50 [16]: > 100 µM (inactive)
GI50 [17]: > 100 µM (inactive)
GI50 [18]: > 100 µM (inactive)
GI50 [19]: > 100 µM (inactive)
GI50 [20]: > 10 µM (inactive)
GI50 [21]: > 100 µM (inactive)
GI50 [22]: > 100 µM (inactive)
GI50 [23]: > 100 µM (inactive)
GI50 [24]: > 100 µM (inactive)
GI50 [25]: > 100 µM (inactive)
GI50 [26]: > 100 µM (inactive)
GI50 [27]: > 100 µM (inactive)
GI50 [28]: > 100 µM (inactive)
GI50 [29]: > 100 µM (inactive)
GI50 [30]: > 100 µM (inactive)
GI50 [31]: > 100 µM (inactive)
GI50 [32]: > 100 µM (inactive)
GI50 [33]: > 100 µM (inactive)
GI50 [34]: > 100 µM (inactive)
GI50 [35]: > 100 µM (inactive)
GI50 [36]: > 100 µM (inactive)
GI50 [37]: > 100 µM (inactive)
GI50 [38]: > 100 µM (inactive)
GI50 [39]: > 100 µM (inactive)
GI50 [40]: > 100 µM (inactive)
GI50 [41]: > 100 µM (inactive)
GI50 [42]: > 100 µM (inactive)
GI50 [43]: > 100 µM (inactive)
GI50 [44]: > 100 µM (inactive)
GI50 [45]: > 100 µM (inactive)
GI50 [46]: > 100 µM (inactive)
GI50 [47]: > 100 µM (inactive)
GI50 [48]: > 100 µM (inactive)
GI50 [49]: > 100 µM (inactive)
GI50 [50]: > 100 µM
GI50 [51]: > 100 µM (inactive)
GI50 [52]: > 100 µM (inactive)
GI50 [53]: > 100 µM (inactive)
